Data taken from US7135466B2 (Kirin Beer Kabushiki Kaisha, priority 1999, dated 2006).

Experiments:
PDGF-Ra = biological target: T1, PDGF-Ra (Homo sapiens, UniProt P16234); experiment: Inhibitory activity against PDGF-Ra phosphorylation by PDGF-AA stimulation using G292; assay type: cell-based; conditions: for IC50: > means inhibition at indicated concentration not more than 50%, < and << not less than 50%, read-out: PDGF (E) IC50; for inhibition at 0.1 µM: G292, read-out: PDGF (E) inhibition (%) at 100 nM
T1 construct: host or cells: G-292 human osteosarcoma cells
Summary of the method: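 Phosphorylated PDGF-Ra was measured colorimetrically (450 nm) after tyrosine-phosphorylated proteins from G-292 lysates were bound to PY-20-coated wells and detected with anti-PDGF-Ra antibody. Compound preincubation lasted 1 hr, followed by 50 ng/ml PDGF-AA for 5 min.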

c-kit = biological target: T2, c-kit (Homo sapiens, UniProt P10721); experiment: Inhibitory activity against c-kit autophosphorylation (MO7e cells, h-SCF); assay type: cell-based; conditions: for IC50: MO7e cells, 50 ng/ml h-SCF, read-out: c-kit IC50; for inhibition at 1 µM: Mo7e, figure within parentheses in −( ) or >1000( ), at 1000 nM
T2 construct: MO7e (human megakaryocytic leukemia cell line) which had been arrested for 20 hr; endogenous in cells; host or cells: MO7e human megakaryocytic leukemia cell line
Summary of the method: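 Ligand-induced c-kit tyrosine phosphorylation is measured in MO7e cells that were quiesced 20 hr and preincubated with compound for 1 hr prior to a 5 min pulse of 50 ng/ml human SCF. Phospho-c-kit is detected by anti-phosphotyrosine capture ELISA, A450.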

[1] = figure within parentheses in >100( ), at 100 nM

T2 sequence (P10721 26-976): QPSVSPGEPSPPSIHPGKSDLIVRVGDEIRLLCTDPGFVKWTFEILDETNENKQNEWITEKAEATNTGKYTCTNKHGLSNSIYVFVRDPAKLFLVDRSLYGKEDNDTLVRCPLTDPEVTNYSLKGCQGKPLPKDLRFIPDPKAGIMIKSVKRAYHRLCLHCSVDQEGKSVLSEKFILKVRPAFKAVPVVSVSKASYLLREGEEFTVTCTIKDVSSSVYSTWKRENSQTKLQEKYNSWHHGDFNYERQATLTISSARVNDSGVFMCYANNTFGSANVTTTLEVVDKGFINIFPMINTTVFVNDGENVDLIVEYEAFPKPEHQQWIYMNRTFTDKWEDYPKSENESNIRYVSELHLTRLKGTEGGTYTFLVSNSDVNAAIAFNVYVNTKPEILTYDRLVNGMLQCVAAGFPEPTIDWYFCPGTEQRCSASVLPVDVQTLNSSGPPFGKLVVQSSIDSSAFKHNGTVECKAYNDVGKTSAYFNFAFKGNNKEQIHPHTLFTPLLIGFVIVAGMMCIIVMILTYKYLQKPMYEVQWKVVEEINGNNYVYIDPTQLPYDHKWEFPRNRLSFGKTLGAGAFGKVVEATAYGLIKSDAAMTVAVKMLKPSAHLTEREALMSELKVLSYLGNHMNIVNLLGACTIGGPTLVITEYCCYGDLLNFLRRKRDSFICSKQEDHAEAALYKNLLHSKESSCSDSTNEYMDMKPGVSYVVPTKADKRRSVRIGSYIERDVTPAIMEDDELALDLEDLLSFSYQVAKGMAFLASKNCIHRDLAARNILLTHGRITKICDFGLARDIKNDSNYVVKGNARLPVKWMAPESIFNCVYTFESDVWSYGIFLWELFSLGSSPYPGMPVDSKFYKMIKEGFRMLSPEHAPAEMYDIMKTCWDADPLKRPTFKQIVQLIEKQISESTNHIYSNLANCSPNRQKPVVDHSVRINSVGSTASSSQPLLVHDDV
T1 sequence (P16234 24-1089): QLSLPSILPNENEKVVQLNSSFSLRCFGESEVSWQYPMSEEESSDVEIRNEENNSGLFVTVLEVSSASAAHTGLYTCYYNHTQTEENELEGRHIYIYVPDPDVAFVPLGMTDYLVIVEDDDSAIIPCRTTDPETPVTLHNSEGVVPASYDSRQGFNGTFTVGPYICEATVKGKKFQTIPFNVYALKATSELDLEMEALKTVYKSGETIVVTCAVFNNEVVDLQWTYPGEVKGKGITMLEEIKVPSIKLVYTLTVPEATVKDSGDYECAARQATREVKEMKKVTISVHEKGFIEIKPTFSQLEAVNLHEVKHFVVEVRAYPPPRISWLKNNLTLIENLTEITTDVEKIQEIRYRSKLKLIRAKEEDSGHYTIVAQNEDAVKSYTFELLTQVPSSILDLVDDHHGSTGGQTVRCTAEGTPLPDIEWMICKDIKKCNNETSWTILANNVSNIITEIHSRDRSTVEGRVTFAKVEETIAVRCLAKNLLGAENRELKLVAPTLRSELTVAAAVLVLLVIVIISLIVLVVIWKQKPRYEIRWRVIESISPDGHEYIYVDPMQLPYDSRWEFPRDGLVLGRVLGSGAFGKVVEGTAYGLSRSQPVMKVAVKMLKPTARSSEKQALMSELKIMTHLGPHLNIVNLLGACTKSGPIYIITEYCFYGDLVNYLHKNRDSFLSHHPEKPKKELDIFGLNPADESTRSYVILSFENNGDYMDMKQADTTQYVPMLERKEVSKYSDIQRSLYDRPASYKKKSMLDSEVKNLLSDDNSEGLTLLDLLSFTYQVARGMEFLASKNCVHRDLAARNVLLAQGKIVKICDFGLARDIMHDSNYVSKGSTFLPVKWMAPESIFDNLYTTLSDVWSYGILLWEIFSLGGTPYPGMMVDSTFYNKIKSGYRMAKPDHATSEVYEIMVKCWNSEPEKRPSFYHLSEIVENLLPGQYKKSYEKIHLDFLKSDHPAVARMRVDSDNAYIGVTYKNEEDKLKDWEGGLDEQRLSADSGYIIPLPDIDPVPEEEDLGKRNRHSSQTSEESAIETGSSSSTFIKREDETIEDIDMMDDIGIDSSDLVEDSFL

Structure (SMILES) | IC50 (PDGF-Ra) | IC50 (c-kit) | inhibition at 0.1 µM (PDGF-Ra; [1]) | inhibition at 1 µM (c-kit) | PDGF (E) inhibition (%) at 100 nM (PDGF-Ra; [1])
COc1cc2nccc(Oc3cc(C)c(NC(=S)NCCN4CCCC4)cc3C)c2cc1OC [Example 541, N-{4-[(6,7-Dimethoxy-4-quinolyl)oxy]-2,5-dimethylphenyl}-N′-[2-(1-pyrrolidinyl)ethyl]thiourea] | 70 nM | 794 nM |  |  | 
COc1cc2nccc(Oc3ccc(NC(=S)NCCN(C)C)c(C)c3C)c2cc1OC [Example 542, N-{4-[(6,7-Dimethoxy-4-quinolyl)oxy]-2,3-dimethylphenyl}-N′-(2-dimethylaminoethyl)thiourea] | > 100 nM | 442 nM | 45% |  | 
COc1cc2nccc(Oc3ccc(NC(=S)NCCCn4ccnc4)c(C)c3C)c2cc1OC [Example 543] | 54 nM | 328 nM |  |  | 
COc1cc2nccc(Oc3cc(C)c(NC(=S)NCCN4CCOCC4)cc3C)c2cc1OC [Example 545, N-{4-[(6,7-Dimethoxy-4-quinolyl)oxy]-2,5-dimethylphenyl}-N′-[2-(1-morpholino)ethyl]thiourea] | 70 nM | 254 nM |  |  | 
CCN(CC)CCCNC(=S)Nc1ccc(Oc2ccnc3cc(OC)c(OC)cc23)c(C)c1C [Example 546, N-{4-[(6,7-Dimethoxy-4-quinolyl)oxy]-2,3-dimethylphenyl}-N′-(3-diethylaminopropyl)thiourea] | 54 nM |  |  | 44% | 
CCCCN(CCCC)CCCNC(=S)Nc1ccc(Oc2ccnc3cc(OC)c(OC)cc23)c(C)c1C [Example 547, N-{4-[(6,7-Dimethoxy-4-quinolyl)oxy]-2,3-dimethylphenyl}-N′-(3-dibutylaminopropyl)thiourea] | > 100 nM |  | 33% | 41% | 
COc1cc2nccc(Oc3ccc(NC(=S)NCCCN4CCCCC4C)c(C)c3C)c2cc1OC (centres unmarked) [Example 549, N-{4-[(6,7-Dimethoxy-4-quinolyl)oxy]-2,3-dimethylphenyl}-N′-[3-(2-methylpiperidinyl)propyl]thiourea] | 62 nM | 681 nM |  |  | 
COc1cc2nccc(Oc3ccc(NC(=S)NCCN(C(C)C)C(C)C)c(C)c3C)c2cc1OC [Example 550, N-{4-[(6,7-Dimethoxy-4-quinolyl)oxy]-2,3-dimethylphenyl}-N′-(2-diisopropylaminoethyl)thiourea] | 77 nM | 536 nM |  |  | 
COc1cc2nccc(Oc3cc(C)c(NC(=S)NCCCN4CCOCC4)cc3C)c2cc1OC [Example 553, N-{4-[(6,7-Dimethoxy-4-quinolyl)oxy]-2,5-dimethylphenyl}-N′-[3-(1-morpholino)propyl]thiourea] | > 100 nM | 320 nM | 40% |  | 
COc1cc2nccc(Oc3cc(C)c(NC(=S)NCCN(C(C)C)C(C)C)cc3C)c2cc1OC [Example 555, N-{4-[(6,7-Dimethoxy-4-quinolyl)oxy]-2,5-dimethylphenyl}-N′-(2-diisopropylaminoethyl)thiourea] | > 100 nM |  | 29% | 39% | 
COc1cc2nccc(Oc3cc(C)c(NC(=S)NCCCN4CCN(C)CC4)cc3C)c2cc1OC [Example 556, N-{4-[(6,7-Dimethoxy-4-quinolyl)oxy]-2,5-dimethylphenyl}-N′-[3-(4-methylpiperazinyl)propyl]thiourea] | > 100 nM |  | 13% | 28% | 
COc1cc2nccc(Oc3ccc(NC(=S)NCCCN4CCN(C)CC4)c(C)c3C)c2cc1OC [Example 557, N-{4-[(6,7-Dimethoxy-4-quinolyl)oxy]-2,3-dimethylphenyl}-N′-[3-(4-methylpiperazinyl)propyl]thiourea] | > 100 nM | 634 nM |  |  | 33%
COc1cc2ncnc(Oc3ccc(NC(=S)NCCN(C)C)cc3)c2cc1OC [Example 559, N-{4-[(6,7-Dimethoxy-4-quinazolinyl)oxy]phenyl}-N′-(2-dimethylaminoethyl)thiourea] | 36 nM | 711 nM |  |  | 
COc1cc2ncnc(Oc3ccc(NC(=O)NC4CC(C)(C)NC(C)(C)C4)cc3)c2cc1OC [Example 563, N-{4-[(6,7-Dimethoxy-4-quinazolinyl)oxy]phenyl}-N′-(2,2,6,6-tetramethyl-4-piperidyl)urea] | 54 nM | 406 nM |  |  | 
COc1cc2nccc(Oc3ccc(NC(=O)N[C@H]4CCN(Cc5ccccc5)C4)cc3)c2cc1OC [Example 565, N-[(3S)-1-Benzyltetrahydro-1H-3-pyrrolyl]-N′-{4-[(6,7-dimethoxy-4-quinolyl)oxy]phenyl}urea] | 46 nM | 170 nM |  |  | 
COc1cc2ncnc(Oc3ccc(NC(=O)N[C@@H]4CCN(Cc5ccccc5)C4)cc3)c2cc1OC [Example 566, N-[(3R)-1-Benzyltetrahydro-1H-3-pyrrolyl]-N′-{4-[(6,7-dimethoxy-4-quinazolinyl)oxy]phenyl}urea] | 17 nM | 276 nM |  |  | 
COc1cc2nccc(Oc3ccc(NC(=O)NC4CCN(Cc5ccccc5C)CC4)cc3)c2cc1OC [Example 568, N-{4-[(6,7-Dimethoxy-4-quinolyl)oxy]phenyl}-N′-[1-(2-methylbenzyl)-4-piperidyl]urea] | > 100 nM |  | 28% | 31% | 
COc1cc2ncnc(Oc3ccc(NC(=O)NC4CCN(Cc5ccccc5C)C4)cc3)c2cc1OC (centres unmarked) [Example 569, N-{4-[(6,7-Dimethoxy-4-quinazolinyl)oxy]phenyl}-N′-[1-(2-methylbenzyl)tetrahydro-1H-3-pyrrolyl]urea] | 12 nM | 168 nM |  |  | 
COc1cc2ncnc(Oc3ccc(NC(=O)NC4CCN(Cc5ccccc5C)C4)c([N+](=O)[O-])c3)c2cc1OC (centres unmarked) [Example 570, N-{4-[(6,7-Dimethoxy-4-quinazolinyl)oxy]-2-nitrophenyl}-N′-[1-(2-methylbenzyl)tetrahydro-1H-3-pyrrolyl]urea] | 23 nM | 173 nM |  |  | 
COc1cc2nccc(Oc3ccc(NC(=O)NC4CCN(Cc5ccccc5C)C4)c(C)c3C)c2cc1OC (centres unmarked) [Example 572, N-{4-[(6,7-Dimethoxy-4-quinolyl)oxy]-2,3-dimethylphenyl}-N′-[1-(2-methylbenzyl)tetrahydro-1H-3-pyrrolyl]urea] | 64 nM | 262 nM |  |  | 

The next lines start with results.

IC50 (PDGF-Ra) | IC50 (c-kit) | inhibition at 0.1 µM (PDGF-Ra; [1]) | inhibition at 1 µM (c-kit) | Structure (SMILES) | PDGF (E) inhibition (%) at 100 nM (PDGF-Ra; [1])
48 nM | 447 nM |  |  | CCN(CCNC(=S)Nc1cc(C)c(Oc2ccnc3cc(OC)c(OC)cc23)cc1C)c1ccccc1C [Example 540, N-{4-[(6,7-Dimethoxy-4-quinolyl)oxy]-2,5-dimethylphenyl}-N′-{2-[N-ethyl-N-(o-tolyl)amino]-ethyl}thiourea] | 
< 10 nM | 216 nM |  |  | CCN(CCNC(=S)Nc1ccc(Oc2ccnc3cc(OC)c(OC)cc23)c(C)c1C)c1ccccc1C [Example 544, N-{4-[(6,7-Dimethoxy-4-quinolyl)oxy]-2,3-dimethylphenyl}-N′-{2-[N-ethyl-N-(o-tolyl)amino]-ethyl}thiourea] | 
46 nM | 268 nM |  |  | COc1cc2nccc(Oc3ccc(NC(=S)NCCCN4CCOCC4)c(C)c3C)c2cc1OC [Example 548, N-{4-[(6,7-Dimethoxy-4-quinolyl)oxy]-2,3-dimethylphenyl}-N′-[3-(1-morpholino)propyl]thiourea] | 
> 100 nM |  | 10% | 28% | CCCCN(CCCC)CCCNC(=S)Nc1cc(C)c(Oc2ccnc3cc(OC)c(OC)cc23)cc1C [Example 552, N-{4-[(6,7-Dimethoxy-4-quinolyl)oxy]-2,5-dimethylphenyl}-N′-(3-dibutylaminopropyl)thiourea] | 
12 nM | 107 nM |  |  | COc1cc2nccc(Oc3ccc(NC(=O)NC4CCN(Cc5ccccc5)C4)cc3)c2cc1OC (centres unmarked) [Example 560, N-(1-Benzyltetrahydro-1H-3-pyrrolyl)-N′-{4-[(6,7-dimethoxy-4-quinolyl)oxy]phenyl}urea] | 
< 10 nM | 54 nM |  |  | CCOC(=O)N1CCC(NC(=O)Nc2ccc(Oc3ccnc4cc(OC)c(OC)cc34)cc2)CC1 [Example 561, Ethyl 4-[({4-[(6,7-dimethoxy-4-quinolyl)oxy]anilino}carbonyl)amino]-1-piperidine-carboxylate] | 
80 nM |  |  | 27% | COc1cc2nccc(Oc3ccc(NC(=O)NC4CC(C)(C)NC(C)(C)C4)cc3)c2cc1OC [Example 562, N-{4-[(6,7-Dimethoxy-4-quinolyl)oxy]-phenyl}-N′-(2,2,6,6-tetramethyl-4-piperidyl)urea] | 
39 nM | 291 nM |  |  | COc1cc2nccc(Oc3ccc(NC(=O)N[C@@H]4CCN(Cc5ccccc5)C4)cc3)c2cc1OC [Example 564, N-[(3R)-1-Benzyltetrahydro-1H-3-pyrrolyl]-N′-{4-[(6,7-dimethoxy-4-quinolyl)oxy]phenyl}urea] | 
32 nM | 556 nM |  |  | COc1cc(Oc2ncnc3cc(OC)c(OC)cc23)ccc1NC(=O)NC1CCN(Cc2ccccc2C)C1 (centres unmarked) [Example 571, N-{4-[(6,7-Dimethoxy-4-quinazolinyl)oxy]-2-methoxyphenyl}-N′-[1-(2-methylbenzyl)tetrahydro-1H-3-pyrrolyl]urea] | 
39 nM | 348 nM |  |  | COc1cc2ncnc(Oc3ccc(NC(=O)NC4CCN(Cc5ccccc5C)C4)c(Cl)c3)c2cc1OC (centres unmarked) [Example 573, N-{2-Chloro-4-[(6,7-dimethoxy-4-quinazolinyl)oxy]phenyl}-N′-[1-(2-methylbenzyl)tetrahydro-1H-3-pyrrolyl]urea] | 
